Source: EPA's ToxRefDB 2

Tests used:
[1] = system: rat; details: Carcinogenicity, fischer, Oral, Gavage/Intubation, dose end: 103 week, group: systemic
[2] = system: mouse; details: Carcinogenicity; b6c3f1; Oral; Gavage/Intubation; dose end: 104 week; group: systemic; systemic / in life observation / body weight / body weight + systemic / pathology microscopic / stomach / cyst + systemic / pathology …
[3] = system: mouse; details: Subchronic oral toxicity in rodents, b6c3f1, Gavage/Intubation, dose end: 13 week, group: systemic, systemic / pathology microscopic / stomach / cytoplasmic alteration + systemic / pathology microscopic / stomach / hyperkeratosis + systemic…
[4] = system: rat; details: Subchronic oral toxicity in rodents, fischer, Gavage/Intubation, dose end: 13 week, group: systemic
[5] = system: rat; details: Prenatal developmental toxicity study, sprague dawley, Oral, Gavage/Intubation, dose end: 19 GD
[6] = system: dog; details: Chronic toxicity, beagle, Oral, Feed, dose end: 104 week
[7] = system: mouse; details: Carcinogenicity, swiss albino, Oral, Feed, dose end: 78 week
[8] = system: dog; details: Combined chronic toxicity/carcinogenicity, beagle, Oral, Feed, dose end: 104 week
[9] = system: dog; details: Chronic toxicity; beagle; Oral; Feed; dose end: 52 week; group: systemic; systemic / in life observation / body weight / body weight + systemic / organ weight / spleen / absolute + systemic / organ weight / spleen…
[10] = system: rat; details: Subchronic oral toxicity in rodents, sprague dawley, Gavage/Intubation, dose end: 94 day
[11] = system: rabbit; details: Prenatal developmental toxicity study; new zealand white; Oral; Gavage/Intubation; dose end: 19 GD; group: maternal; reproductive / reproductive performance / postimplantation loss / postimplantation loss + reproductive / reproductive performance / …
[12] = system: rat; details: Multigenerational reproductive toxicity study, sprague dawley, Oral, Feed, dose end: 2 generation
[13] = system: rat; details: Combined chronic toxicity/carcinogenicity, sprague dawley, Oral, Feed, dose end: 104 week
[14] = system: rat; details: Subchronic oral toxicity in rodents, Diet, dose end: 90 day
[15] = system: rat; details: Combined chronic toxicity/carcinogenicity, sprague dawley, Oral, Feed, dose end: 24 month, group: systemic
[16] = system: dog; details: Chronic toxicity; beagle; Oral; Feed; dose end: 12 month; group: cholinesterase; cholinesterase / cholinesterase / cholinesterase / erythrocyte cholinesterase (che) + cholinesterase / cholinesterase / cholinesterase / …
[17] = system: dog; details: Subchronic oral toxicity in nonrodent, beagle, Capsule, dose end: 6 month
[18] = system: rat; details: Chronic toxicity, Oral, Feed, dose end: 26 month, group: systemic
[19] = system: rat; details: Combined chronic toxicity/carcinogenicity, wistar, Oral, Feed, dose end: 26 month
[20] = system: rat; details: Developmental neurotoxicity study; long evans; Injection; Subcutaneous; dose end: 30 PND; group: cannot be grouped; cholinesterase / cholinesterase / cholinesterase / cholinesterase (che) + systemic / in life observation / body weight / offspring (pup) …
[21] = systemic / in life observation / clinical signs / defecation (diarrhea) + systemic / in life observation / clinical signs / urination
[22] = systemic / in life observation / clinical signs / defecation (diarrhea) + systemic / in life observation / clinical signs / urination + …
[23] = systemic / in life observation / body weight / body weight + systemic / in life observation / clinical signs / defecation (diarrhea) + …
[24] = group: developmental, systemic / in life observation / body weight / fetal weight
[25] = group: maternal, systemic / in life observation / mortality / mortality + systemic / pathology microscopic / liver / hepatitis + systemic / pathology …
[26] = group: cholinesterase, cholinesterase / cholinesterase / cholinesterase / plasma cholinesterase (che)
[27] = group: systemic, systemic / pathology microscopic / intestine small / hypertrophy + systemic / pathology microscopic / stomach / hypertrophy + systemic / …
[28] = group: cholinesterase, cholinesterase / cholinesterase / cholinesterase / erythrocyte cholinesterase (che) + cholinesterase / cholinesterase / cholinesterase / …
[29] = group: systemic, systemic / in life observation / body weight / body weight + systemic / in life observation / body weight / body weight gain + systemic / in…
[30] = group: systemic, systemic / pathology microscopic / intestine small / hypertrophy + systemic / in life observation / clinical signs / soft stools + systemic…
[31] = group: cholinesterase, cholinesterase / cholinesterase / cholinesterase / plasma cholinesterase (che) + cholinesterase / cholinesterase / cholinesterase / brain …
[32] = group: systemic, systemic / organ weight / liver / relative to body weight + systemic / organ weight / ovary / absolute + systemic / organ weight / ovary / …
[33] = group: offspring, systemic / in life observation / body weight / offspring (pup) weight
[34] = group: offspring, systemic / in life observation / body weight / offspring (pup) weight + developmental / offspring survival late / viability index / …
[35] = group: parental, systemic / in life observation / body weight / body weight + systemic / in life observation / food consumption / food consumption + systemic…
[36] = group: systemic, systemic / clinical chemistry / alkaline phosphatase (alp/alk) / alkaline phosphatase (alp/alk) + systemic / in life observation / body …
[37] = group: systemic, systemic / in life observation / body weight / body weight gain + systemic / in life observation / mortality / mortality
[38] = systemic / pathology microscopic / nerve / [other] + systemic / pathology microscopic / nerve / proliferation
[39] = group: systemic, systemic / clinical chemistry / [other] / [other]
[40] = systemic / pathology microscopic / eye / [other]
[41] = systemic / pathology microscopic / eye / [other] + systemic / pathology microscopic / eye / atrophy + systemic / pathology microscopic / eye…
[42] = group: systemic, systemic / in life observation / body weight / body weight + systemic / in life observation / clinical signs / [other] + systemic / in life …

CC1(C)S[C@@H]2[C@H](NC(=O)COc3ccccc3)C(=O)N2[C@H]1C(=O)[O-].[K+] [Penicillin VK]
LEL [1, 21]: 500 mg/kg/day
NEL [1, 21]: < 500 mg/kg/day
LOAEL [1, 22]: > 1000 mg/kg/day
NOAEL [1, 22]: ≥ 1000 mg/kg/day
LEL [2]: 500 mg/kg/day
LOAEL [2]: > 1000 mg/kg/day
NEL [2]: < 500 mg/kg/day
NOAEL [2]: ≥ 1000 mg/kg/day
LEL [3]: 100 mg/kg/day
LOAEL [3]: > 3000 mg/kg/day
NEL [3]: < 100 mg/kg/day
NOAEL [3]: ≥ 3000 mg/kg/day
LOAEL [4, 23]: > 3000 mg/kg/day
NEL [4, 23]: 370 mg/kg/day
NOAEL [4, 23]: ≥ 3000 mg/kg/day
LEL ([4]; systemic / in life observation / clinical signs / defecation (diarrhea)): 750 mg/kg/day

O=P(O)(O)CCCl [Ethephon]
LEL [5, 24]: 1800 mg/kg/day
LOAEL [5, 24]: 1800 mg/kg/day
NEL [5, 24]: 600 mg/kg/day
NOAEL [5, 24]: 600 mg/kg/day
LEL [5, 25]: 1800 mg/kg/day
LOAEL [5, 25]: 1800 mg/kg/day
NEL [5, 25]: 600 mg/kg/day
NOAEL [5, 25]: 600 mg/kg/day
LOAEL ([6]; group: cholinesterase, cholinesterase / cholinesterase / cholinesterase / erythrocyte cholinesterase (che)): 7.5 mg/kg/day
LEL [6, 26]: 0.75 mg/kg/day
NEL [6, 26]: < 0.75 mg/kg/day
NOAEL ([6]; group: cholinesterase, cholinesterase / cholinesterase / cholinesterase / plasma cholinesterase (che) + cholinesterase / cholinesterase / cholinesterase / …): 0.75 mg/kg/day
LEL ([6]; group: systemic, systemic / pathology microscopic / intestine small / hypertrophy + systemic / pathology microscopic / stomach / hypertrophy): 7.5 mg/kg/day
LOAEL [6, 27]: > 75 mg/kg/day
NEL [6, 27]: 0.75 mg/kg/day
NOAEL [6, 27]: ≥ 75 mg/kg/day
LEL [7, 28]: 156 mg/kg/day
LOAEL [7, 28]: > 7750 mg/kg/day
NEL [7, 28]: 15.5 mg/kg/day
NOAEL [7, 28]: ≥ 7750 mg/kg/day
LOAEL ([7]; group: systemic, systemic / in life observation / body weight / body weight + systemic / in life observation / body weight / body weight gain): 1630 mg/kg/day
NEL [7, 29]: 156 mg/kg/day
NOAEL [7, 29]: 156 mg/kg/day
LEL ([7]; group: systemic, systemic / in life observation / body weight / body weight + systemic / in life observation / body weight / body weight gain + systemic / …): 1630 mg/kg/day
LEL [8, 26]: 0.75 mg/kg/day
LOAEL [8, 26]: 0.75 mg/kg/day
NEL [8, 26]: < 0.75 mg/kg/day
NOAEL [8, 26]: < 0.75 mg/kg/day
LEL [8, 30]: 7.5 mg/kg/day
LOAEL [8, 30]: > 37.5 mg/kg/day
NEL [8, 30]: 0.75 mg/kg/day
NOAEL [8, 30]: ≥ 37.5 mg/kg/day
LEL [9]: 52.1 mg/kg/day
LOAEL [9]: 52.1 mg/kg/day
NEL [9]: 28.5 mg/kg/day
NOAEL [9]: 28.5 mg/kg/day
LEL [10, 26]: 50 mg/kg/day
NEL [10, 26]: < 50 mg/kg/day
LOAEL [10, 31]: > 200 mg/kg/day
NOAEL [10, 31]: ≥ 200 mg/kg/day
LEL [10, 32]: 200 mg/kg/day
LOAEL [10, 32]: 200 mg/kg/day
NEL [10, 32]: 100 mg/kg/day
NOAEL [10, 32]: 100 mg/kg/day
LEL [11]: 250 mg/kg/day
LOAEL [11]: 250 mg/kg/day
NEL [11]: 125 mg/kg/day
NOAEL [11]: 125 mg/kg/day
LEL [12, 33]: 198 mg/kg/day
LOAEL [12, 33]: 198 mg/kg/day
NEL [12, 34]: 19.8 mg/kg/day
NOAEL [12, 34]: 19.8 mg/kg/day
LEL [12, 35]: 245 mg/kg/day
LOAEL [12, 35]: 245 mg/kg/day
NEL [12, 35]: 23.7 mg/kg/day
NOAEL [12, 35]: 23.7 mg/kg/day
LEL [13, 28]: 150 mg/kg/day
LOAEL [13, 28]: 150 mg/kg/day
NEL [13, 28]: 15 mg/kg/day
NOAEL [13, 28]: 15 mg/kg/day
LEL [13, 36]: 15 mg/kg/day
LOAEL [13, 36]: > 150 mg/kg/day
NEL [13, 36]: 1.5 mg/kg/day
NOAEL [13, 36]: ≥ 150 mg/kg/day

CCOP(=S)(OCC)Oc1ccc([N+](=O)[O-])cc1 [Parathion]
LEL [14, 28]: 0.4 mg/kg/day
LOAEL [14, 28]: 4 mg/kg/day
NEL [14, 28]: 0.04 mg/kg/day
NOAEL [14, 28]: 0.4 mg/kg/day
LEL [14, 37]: 4 mg/kg/day
LOAEL [14, 37]: 4 mg/kg/day
NEL [14, 37]: 0.4 mg/kg/day
NOAEL [14, 37]: 0.4 mg/kg/day
NEL ([15]; systemic / in life observation / clinical signs / abnormal gait): 0.25 mg/kg/day
LOAEL [15, 38]: 2.5 mg/kg/day
NOAEL [15, 38]: 0.25 mg/kg/day
LEL ([15]; systemic / pathology microscopic / nerve / [other] + systemic / pathology microscopic / nerve / proliferation + systemic / in life …): 2.5 mg/kg/day
LEL [16]: 0.01 mg/kg/day
LOAEL [16]: 0.01 mg/kg/day
NEL [16]: < 0.01 mg/kg/day
NOAEL [16]: < 0.01 mg/kg/day
LEL [17, 26]: 0.0024 mg/kg/day
LOAEL [17, 26]: 0.0079 mg/kg/day
NEL [17, 26]: < 0.0024 mg/kg/day
NOAEL ([17]; group: cholinesterase, cholinesterase / cholinesterase / cholinesterase / plasma cholinesterase (che) + cholinesterase / cholinesterase / cholinesterase / brain (…): 0.0024 mg/kg/day
LEL [17, 39]: 0.794 mg/kg/day
LOAEL [17, 39]: > 0.794 mg/kg/day
NEL [17, 39]: 0.0079 mg/kg/day
NOAEL [17, 39]: ≥ 0.794 mg/kg/day
NEL [18, 40]: 0.4 mg/kg/day
NOAEL [18, 40]: 0.4 mg/kg/day
LEL [18, 41]: 1.6 mg/kg/day
LOAEL [18, 41]: 1.6 mg/kg/day
LEL [19, 28]: 0.42 mg/kg/day
LOAEL [19, 28]: 0.42 mg/kg/day
NEL [19, 28]: 0.1 mg/kg/day
NOAEL [19, 28]: 0.1 mg/kg/day
LOAEL [19, 42]: > 1.75 mg/kg/day
NOAEL [19, 42]: ≥ 1.75 mg/kg/day
LEL ([19]; group: systemic, systemic / pathology microscopic / eye / [other]): 0.53 mg/kg/day
NEL ([19]; group: systemic, systemic / pathology microscopic / eye / [other] + systemic / clinical chemistry / aspartate aminotransferase (ast/sgot) / aspartate …): 0.14 mg/kg/day
LEL [20]: 1.3 mg/kg/day
LOAEL [20]: > 1.9 mg/kg/day
NEL [20]: < 1.3 mg/kg/day
NOAEL [20]: ≥ 1.9 mg/kg/day
